Data: patent US9695155B2, “Herbicidal substituted pyrimidinyloxy benzene compounds” (E. I. DU PONT DE NEMOURS AND COMPANY, priority 2013, dated 2017)

How the values were obtained:
corn [1] = assay: Test E preemergence; format: in vivo, Zea mays; details: for Corn plant response rating: scale 0 to 100 (0 no effect, 100 complete control); for Plant response rating, Corn: scale 0 to 100, 0 no effect, 100 complete control
In short: (§1)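 Compound in a non-phytotoxic solvent mixture with surfactant was applied preemergence to seeds in silt loam soil, or postemergence to plants 2 to 18 cm tall grown in peat-based potting medium. Plants were kept in a greenhouse for 14 to 21 days, then rated visually against untreated controls on a 0 (no effect) to 100 (complete control) scale.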

lambsquarters = assay: Test E preemergence; format: in vivo, Chenopodium album; details: for Lambsquarters plant response rating: scale 0 to 100 (0 no effect, 100 complete control); for Plant response rating, Lambsquarters: scale 0 to 100, 0 no effect, 100 complete control
In short: as §1

wild poinsettia = assay: Test E preemergence; format: in vivo, Euphorbia heterophylla; details: for Poinsettia, Wild plant response rating: scale 0 to 100 (0 no effect, 100 complete control); for Plant response rating, Poinsettia, Wild: scale 0 to 100, 0 no effect, 100 complete control
In short: as §1

palmer pigweed = assay: Test E preemergence; format: in vivo, Amaranthus palmeri; details: for Pigweed, Palmer plant response rating: scale 0 to 100 (0 no effect, 100 complete control); for Plant response rating, Pigweed, Palmer: scale 0 to 100, 0 no effect, 100 complete control
In short: as §1

Brazilian crabgrass [2] = assay: Test E preemergence; format: in vivo, Digitaria horizontalis; details: for Crabgrass, Brazil plant response rating: scale 0 to 100 (0 no effect, 100 complete control); for Plant response rating, Crabgrass, Brazil: scale 0 to 100, 0 no effect, 100 complete control
In short: as §1

arrowleaf sida = assay: Test E preemergence; format: in vivo, Sida rhombifolia; details: for Arrowleaf Sida plant response rating: scale 0 to 100 (0 no effect, 100 complete control); for Plant response rating, Arrowleaf Sida: scale 0 to 100, 0 no effect, 100 complete control
In short: as §1

dayflower [3] = assay: Test E preemergence; format: in vivo, Commelina virginica; details: for Dayflower, VA plant response rating: scale 0 to 100 (0 no effect, 100 complete control); for Plant response rating, Dayflower, VA: scale 0 to 100, 0 no effect, 100 complete control
In short: as §1

field bindweed = assay: Test E preemergence; format: in vivo, Convolvulus arvensis; details: for Field Bindweed plant response rating: scale 0 to 100 (0 no effect, 100 complete control); for Plant response rating, Field Bindweed: scale 0 to 100, 0 no effect, 100 complete control
In short: as §1

morningglory = assay: Test E preemergence; format: in vivo, Ipomoea coccinea; details: for Morningglory plant response rating: scale 0 to 100 (0 no effect, 100 complete control); for Plant response rating, Morningglory: scale 0 to 100, 0 no effect, 100 complete control
In short: as §1

yellow nutsedge = assay: Test E preemergence; format: in vivo, Cyperus esculentus; details: for Nutsedge, Yellow plant response rating: scale 0 to 100 (0 no effect, 100 complete control); for Plant response rating, Nutsedge, Yellow: scale 0 to 100, 0 no effect, 100 complete control
In short: as §1

hairy beggarticks = assay: Test E preemergence; format: in vivo, Bidens pilosa; details: for Beggarticks plant response rating: scale 0 to 100 (0 no effect, 100 complete control); for Plant response rating, Beggarticks: scale 0 to 100, 0 no effect, 100 complete control
In short: as §1

corn [4] = assay: Test E postemergence; format: in vivo, Zea mays; details: Postemergence, scale 0 to 100
In short: as §1

soybean = assay: Test E postemergence; format: in vivo, Glycine max; details: Postemergence, scale 0 to 100
In short: as §1

Brazilian crabgrass [5] = assay: Test E postemergence; format: in vivo, Digitaria horizontalis; details: Postemergence, scale 0 to 100
In short: as §1

Italian ryegrass = assay: Test E postemergence; format: in vivo, Lolium multiflorum; details: Postemergence, scale 0 to 100
In short: as §1

dayflower [6] = assay: Test E postemergence; format: in vivo, Commelina virginica; details: Postemergence, scale 0 to 100
In short: as §1

Compound: N#Cc1cccc(Oc2ncc(Cl)cn2)c1-n1cc(Cl)cn1 [Compound 72]
- Corn plant response rating (corn [1]; 16 g ai/ha): 0
- Corn plant response rating (corn [1]; 31 g ai/ha): 0
- Corn plant response rating (corn [1]; 62 g ai/ha): 0
- Plant response rating, Corn (corn [1]; 125 g ai/ha): 0
- Plant response rating, Corn (corn [1]; 250 g ai/ha): 0
- Lambsquarters plant response rating (lambsquarters; 16 g ai/ha): 0
- Lambsquarters plant response rating (lambsquarters; 31 g ai/ha): 90
- Lambsquarters plant response rating (lambsquarters; 62 g ai/ha): 100
- Plant response rating, Lambsquarters (lambsquarters; 125 g ai/ha): 100
- Plant response rating, Lambsquarters (lambsquarters; 250 g ai/ha): 100
- Poinsettia, Wild plant response rating (wild poinsettia; 16 g ai/ha): 15
- Poinsettia, Wild plant response rating (wild poinsettia; 31 g ai/ha): 5
- Poinsettia, Wild plant response rating (wild poinsettia; 62 g ai/ha): 15
- Plant response rating, Poinsettia, Wild (wild poinsettia; 125 g ai/ha): 70
- Plant response rating, Poinsettia, Wild (wild poinsettia; 250 g ai/ha): 70
- Pigweed, Palmer plant response rating (palmer pigweed; 16 g ai/ha): 95
- Pigweed, Palmer plant response rating (palmer pigweed; 31 g ai/ha): 100
- Pigweed, Palmer plant response rating (palmer pigweed; 62 g ai/ha): 100
- Plant response rating, Pigweed, Palmer (palmer pigweed; 125 g ai/ha): 100
- Plant response rating, Pigweed, Palmer (palmer pigweed; 250 g ai/ha): 100
- Crabgrass, Brazil plant response rating (Brazilian crabgrass [2]; 16 g ai/ha): 90
- Crabgrass, Brazil plant response rating (Brazilian crabgrass [2]; 31 g ai/ha): 98
- Crabgrass, Brazil plant response rating (Brazilian crabgrass [2]; 62 g ai/ha): 100
- Plant response rating, Crabgrass, Brazil (Brazilian crabgrass [2]; 125 g ai/ha): 100
- Plant response rating, Crabgrass, Brazil (Brazilian crabgrass [2]; 250 g ai/ha): 100
- Arrowleaf Sida plant response rating (arrowleaf sida; 16 g ai/ha, preemergence): 20
- Arrowleaf Sida plant response rating (arrowleaf sida; 31 g ai/ha, preemergence): 40
- Plant response rating, Arrowleaf Sida (arrowleaf sida; Preemergence, 62 g ai/ha): 40
- Plant response rating, Arrowleaf Sida (arrowleaf sida; preemergence, 125 g ai/ha): 100
- Plant response rating, Arrowleaf Sida (arrowleaf sida; preemergence, 250 g ai/ha): 100
- Dayflower, VA plant response rating (dayflower [3]; 16 g ai/ha): 0
- Dayflower, VA plant response rating (dayflower [3]; 31 g ai/ha): 0
- Dayflower, VA plant response rating (dayflower [3]; 62 g ai/ha): 35
- Plant response rating, Dayflower, VA (dayflower [3]; 125 g ai/ha): 65
- Plant response rating, Dayflower, VA (dayflower [3]; 250 g ai/ha): 95
- Field Bindweed plant response rating (field bindweed; 16 g ai/ha): 0
- Field Bindweed plant response rating (field bindweed; 31 g ai/ha): 5
- Field Bindweed plant response rating (field bindweed; 62 g ai/ha): 10
- Plant response rating, Field Bindweed (field bindweed; 125 g ai/ha): 60
- Plant response rating, Field Bindweed (field bindweed; 250 g ai/ha): 95
- Morningglory plant response rating (morningglory; 16 g ai/ha): 0
- Morningglory plant response rating (morningglory; 31 g ai/ha): 0
- Morningglory plant response rating (morningglory; 62 g ai/ha): 15
- Plant response rating, Morningglory (morningglory; 125 g ai/ha): 15
- Plant response rating, Morningglory (morningglory; 250 g ai/ha): 35
- Nutsedge, Yellow plant response rating (yellow nutsedge; 16 g ai/ha): 0
- Nutsedge, Yellow plant response rating (yellow nutsedge; 31 g ai/ha): 0
- Nutsedge, Yellow plant response rating (yellow nutsedge; 62 g ai/ha): 0
- Plant response rating, Nutsedge, Yellow (yellow nutsedge; 125 g ai/ha): 25
- Plant response rating, Nutsedge, Yellow (yellow nutsedge; 250 g ai/ha): 50
- Beggarticks plant response rating (hairy beggarticks; 16 g ai/ha, preemergence): 0
- Beggarticks plant response rating (hairy beggarticks; 31 g ai/ha, preemergence): 0
- Plant response rating, Beggarticks (hairy beggarticks; Preemergence, 62 g ai/ha): 5
- Plant response rating, Beggarticks (hairy beggarticks; preemergence, 125 g ai/ha): 5
- Plant response rating, Beggarticks (hairy beggarticks; preemergence, 250 g ai/ha): 30
- Plant response rating, Corn (corn [4]; 62 g ai/ha): 15
- Plant response rating, Corn (corn [4]; 125 g ai/ha): 10
- Plant response rating, Soybean (soybean; 62 g ai/ha): 95
- Plant response rating, Soybean (soybean; 125 g ai/ha): 95
- Plant response rating, Crabgrass, Brazil (Brazilian crabgrass [5]; 62 g ai/ha): 10
- Plant response rating, Crabgrass, Brazil (Brazilian crabgrass [5]; 125 g ai/ha): 20
- Plant response rating, Ryegrass, Italian (Italian ryegrass; 62 g ai/ha): 0
- Plant response rating, Ryegrass, Italian (Italian ryegrass; 125 g ai/ha): 5
- Plant response rating, Dayflower, VA (dayflower [6]; 62 g ai/ha): 50
- Plant response rating, Dayflower, VA (dayflower [6]; 125 g ai/ha): 60
